Drawing on patent US20260317344A1, “EGFR INHIBITORS FOR TREATING DISEASE” (BLOSSOMHILL THERAPEUTICS, INC., priority 2023, published 2026), this text covers IC50 for eight compounds.

Like-named read-outs stand apart in the source and are kept apart here.

One experiment concerns the target EGFR (D746-750/C797S) (Homo sapiens, UniProt P00533, C797S/DEL746-750). Nature of the experiment: HotSpot radiometric kinase assay, inhibition of EGFR 746-750/C797S mutant. Particulars: 33P ATP, room temperature, 120 m. The class given is biochemical. The procedure:
(§1) Biochemical Assays for inhibition of wild-type and mutant EGFRs
(§2) Briefly, specific kinase/substrate pairs along with required cofactors were prepared in reaction buffer; 20 mM HEPES pH 7.5, 10 mM […], 1 mM EGTA, 0.02% Brij35, 0.02 mg/ml BSA, 0.1 mM Na3VO4, 2 mM DTT, 1% DMSO. Compounds were delivered into the reaction, followed ~20 minutes later by addition of a mixture of ATP (Sigma, St. Louis MO) and ^33P ATP (Perkin Elmer, Waltham MA) to a final concentration of […]. Reactions were carried out at room temperature for 120 m, followed by spotting of the reactions onto P81 ion exchange filter paper (Whatman Inc., Piscataway, NJ). Unbound phosphate was removed by extensive washing of filters in 0.75% phosphoric acid. […] IC50 values and curve fits were obtained using Prism (GraphPad Software).

A further experiment deals with EGFR (L858R/T790M/C797S) (Homo sapiens, UniProt P00533, C797S/L858R/T790M). In words: HotSpot radiometric kinase assay, inhibition of EGFR L858R/T790M/C797S mutant. The class given is biochemical. Particulars: 33P ATP, room temperature, 120 m. The procedure: as §1, §2
A further experiment deals with EGFR (D770_N771insNPG) (Homo sapiens, UniProt P00533, INS770NPG). In words: HotSpot radiometric kinase assay, inhibition of EGFR (D770_N771insNPG) mutant. It counts as biochemical. The following applies: 33P ATP, room temperature, 120 m. The procedure:
as §1, §2

For the next experiment, the target named is EGFR (D746-750) (Homo sapiens, UniProt P00533, DEL746-750). In words: HotSpot radiometric kinase assay, inhibition of EGFR 746-750 mutant. The class given is biochemical. The following applies: 33P ATP, room temperature, 120 m. The protocol: as §1, §2
For a further experiment, the system named is HCC827 cells. In words: 5-Day CellTiter Glo (CTG) cell proliferation assay, HCC827. Particulars: Homo sapiens, read-out: HCC827 IC50. It counts as cell-based. The procedure:
(§3) 5-Day CellTiter Glo (CTG) Cell Proliferation Assays (PC9, H1975, H827)
(§4) Cell proliferation assays were carried out in NSCLC cells with EGFR activation mutations. Both PC-9 cells and HCC827 cells (purchased from DSMZ) carry a Glu746-Ala750 deletion (d746-750) mutation in exon 19 of the EGFR gene and NCI-H1975 cells carry both L858R activation mutation and T790M gatekeeper mutation in the EGFR gene. One thousand PC-9, NCI-H1975 or HCC827 cells/100 μL per well were seeded in 96-well black plate with transparent bottom and then treated with indicated compounds in a 9-dose dilution series dispensed using TECAN d300e liquid dispenser. Cells were incubated with compounds for 120 hours at 37° C. and 5% CO2. Cell proliferation was measured using CellTiter-Glo 2.0 luciferase-based ATP detection assay (Promega, Madison, WI) at […] per well following the manufacturer's protocol. Plates were then read on a TECAN Sparks multimode microplate reader. Data was analyzed using GraphPad Prism 9 (GraphPad Software, San Diego, CA) to obtain IC50 values.

Another experiment relates to PC-9 cells. Nature of the experiment: 5-Day CellTiter Glo (CTG) cell proliferation assay, PC-9. It counts as cell-based. Particulars: Homo sapiens, read-out: PC-9 IC50. The procedure:
as §3, §4

The target in experiment [1] is T1, pEGFR, A431 cells (wildtype EGFR) (Homo sapiens, UniProt P00533).
T1 construct: pEGFR (Tyr1068) TR-FRET
In words: Cellular EGFR phosphorylation assay (LANCE Ultra TR-FRET) in A431 cells. It counts as cell-based. Particulars: 4 hours at 37° C., 40 ng/mL EGF for the final 10 minutes, read-out: A431 pEGFR IC50. The protocol:
(§5) Cellular EGFR Phosphorylation Assays
(§6) EGFR phosphorylation assays were conducted in NSCLC cells with EGFR activation mutations. PC-9 cells (purchased from Aldrich-Sigma) carry a Glu746-Ala750 deletion (d746-750) mutation in exon 19 of the EGFR gene and NCI-H1975 cells (purchased from ATCC) carry both L858R activation mutation and T790M gatekeeper mutation in the EGFR gene. A431 cells (purchased from ATCC) with amplification of wildtype EGFR, derived from epidermoid carcinoma, were used to measure the activity against wildtype EGFR. All cells were seeded in 96-well plates. For PC-9 and NCI-H1975 cells, 50 thousand cells were seeded per well. For A431 cells, 30 thousand cells were seeded per well. The next day, cells were exposed to compound for 4 hours at 37° C. and 5% CO2. Compounds were diluted in DMSO and added to cells in a 9-dose, 3-fold dilution, titration curve using TECAN d300e liquid dispenser. For A431 cells, 40 ng/mL of EGF was added to the media for the final 10 minutes of incubation. EGFR phosphorylation was measured using phospho-EGFR (Try1068) LANCE Ultra TR-FRET Detection Kit (TRF4015M) from PerkinElmer according to manufacturer's instructions. In brief, cells were lysed with 40 μL of lysis buffer plus 1× Halt protease and phosphatase inhibitor cocktail (Thermo 78441) and by incubation at room temperature for 1 h on a microplate shaker (350 rpm). 15 μ L of cell lysate was transferred to 384-well white plate and 5 μL of Europium- and ULight-labeled antibodies diluted in 1× detection buffer was added to each well. After 4-6 hours of incubation at room temperature, plates were then read on a TECAN Sparks multimode microplate reader. Data was analyzed using GraphPad Prism 9 (GraphPad Software, San Diego, CA) to obtain IC50 values.

Experiment [2] concerns the target T2, pEGFR, PC-9 cells (d746-750 EGFR) (Homo sapiens, UniProt P00533, DEL746-750).
T2 construct: pEGFR (Tyr1068) TR-FRET
Nature of the experiment: Cellular EGFR phosphorylation assay (LANCE Ultra TR-FRET) in PC-9 cells. It counts as cell-based. The following applies: 4 hours at 37° C., read-out: PC-9 pEGFR IC50. The procedure:
as §5, §6

In the next experiment the test system is NCI-H1975 cells. In words: 5-Day CellTiter Glo (CTG) cell proliferation assay, NCI-H1975. Particulars: Homo sapiens, read-out: H1975 IC50. The class given is cell-based. The procedure: as §3, §4
Experiment [3] deals with BaF3 cells with engineered EGFR L858R/T790M/C797S. In words: 3-Day CellTiter Glo (CTG) cell proliferation assay, BaF3 EGFR L858R/T790M/C797S. It counts as cell-based. Particulars: Mus musculus, 3-day CTG proliferation, 72 hours. The protocol:
3-DAY CellTiter Glo (CTG) Cell Proliferation Assays (BaF3 Cell Lines)
Cell proliferation assays were carried out in BaF3 cells engineered with EGFR mutations. BaF3 cells with engineered EGFR L858R/T790M/C797S, EGFR L858R/C797S, or EGFR d746-750/T790M transgene, one thousand cells/50 μL per well were seeded in white 384-well plate, followed by treatment with indicated compounds in a 9-dose dilution series using TECAN d300e liquid dispenser. Cells were incubated with compounds for 72 hours at 37° C. and 5% CO2. Cell proliferation was measured using CellTiter-Gbo 2.0 luciferase-based ATP detection assay (Promega, Madison, WI) at 18 μL per well following the manufacturer's protocol. Plates were then read on a TECAN Sparks multimode microplate reader. Data was analyzed using GraphPad Prism 9 (GraphiPad Software, San Diego, CA) to obtain IC50 values.

For experiment [4], the target named is T3, pEGFR, NCI-H1975 cells (L858R/T790M EGFR) (Homo sapiens, UniProt P00533, L858R/T790M).
T3 construct: pEGFR (Tyr1068) TR-FRET
Nature of the experiment: Cellular EGFR phosphorylation assay (LANCE Ultra TR-FRET) in NCI-H1975 cells. It counts as cell-based. The following applies: 4 hours at 37° C., read-out: H1975 pEGFR IC50. The procedure: as §5, §6

Where [5] appears, read: HCC827 cells (d746-750 EGFR), 5-day CTG proliferation, 120 hours.
Setting [6] is: PC-9 cells (d746-750 EGFR), 5-day CTG proliferation, 120 hours.
The mark [7] stands for this setting: NCI-H1975 cells (L858R/T790M EGFR), 5-day CTG proliferation, 120 hours.

T1 sequence (P00533 25-1210): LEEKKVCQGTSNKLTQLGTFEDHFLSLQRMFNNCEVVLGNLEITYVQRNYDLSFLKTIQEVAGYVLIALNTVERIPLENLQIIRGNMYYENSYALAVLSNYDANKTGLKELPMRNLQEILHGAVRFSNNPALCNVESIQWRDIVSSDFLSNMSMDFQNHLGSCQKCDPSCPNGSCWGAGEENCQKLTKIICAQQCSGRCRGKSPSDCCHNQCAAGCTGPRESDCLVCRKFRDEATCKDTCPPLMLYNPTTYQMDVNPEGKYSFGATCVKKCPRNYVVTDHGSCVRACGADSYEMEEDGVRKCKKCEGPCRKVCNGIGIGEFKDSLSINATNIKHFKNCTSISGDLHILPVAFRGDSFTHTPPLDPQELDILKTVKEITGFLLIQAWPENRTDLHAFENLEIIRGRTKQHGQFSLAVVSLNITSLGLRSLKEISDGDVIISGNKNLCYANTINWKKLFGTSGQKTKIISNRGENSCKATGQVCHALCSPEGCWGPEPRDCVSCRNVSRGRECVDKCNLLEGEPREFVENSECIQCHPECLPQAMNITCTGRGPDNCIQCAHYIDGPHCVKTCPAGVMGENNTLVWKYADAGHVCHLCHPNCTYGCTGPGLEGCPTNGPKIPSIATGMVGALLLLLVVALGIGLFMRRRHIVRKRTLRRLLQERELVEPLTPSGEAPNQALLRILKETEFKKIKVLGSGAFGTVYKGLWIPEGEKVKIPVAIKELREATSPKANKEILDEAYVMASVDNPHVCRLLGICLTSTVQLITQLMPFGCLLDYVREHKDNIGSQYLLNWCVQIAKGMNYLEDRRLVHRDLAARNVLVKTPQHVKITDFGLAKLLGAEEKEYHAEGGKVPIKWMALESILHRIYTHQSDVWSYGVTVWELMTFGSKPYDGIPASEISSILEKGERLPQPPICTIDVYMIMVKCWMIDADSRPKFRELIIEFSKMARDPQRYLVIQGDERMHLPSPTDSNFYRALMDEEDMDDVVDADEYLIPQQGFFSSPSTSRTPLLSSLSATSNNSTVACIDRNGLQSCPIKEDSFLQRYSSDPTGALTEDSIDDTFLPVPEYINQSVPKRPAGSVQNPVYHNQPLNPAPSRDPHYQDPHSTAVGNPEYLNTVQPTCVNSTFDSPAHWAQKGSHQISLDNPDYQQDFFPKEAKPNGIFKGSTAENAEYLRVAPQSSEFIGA
T2 sequence (P00533 with tags, fused parts or gaps DEL746-750): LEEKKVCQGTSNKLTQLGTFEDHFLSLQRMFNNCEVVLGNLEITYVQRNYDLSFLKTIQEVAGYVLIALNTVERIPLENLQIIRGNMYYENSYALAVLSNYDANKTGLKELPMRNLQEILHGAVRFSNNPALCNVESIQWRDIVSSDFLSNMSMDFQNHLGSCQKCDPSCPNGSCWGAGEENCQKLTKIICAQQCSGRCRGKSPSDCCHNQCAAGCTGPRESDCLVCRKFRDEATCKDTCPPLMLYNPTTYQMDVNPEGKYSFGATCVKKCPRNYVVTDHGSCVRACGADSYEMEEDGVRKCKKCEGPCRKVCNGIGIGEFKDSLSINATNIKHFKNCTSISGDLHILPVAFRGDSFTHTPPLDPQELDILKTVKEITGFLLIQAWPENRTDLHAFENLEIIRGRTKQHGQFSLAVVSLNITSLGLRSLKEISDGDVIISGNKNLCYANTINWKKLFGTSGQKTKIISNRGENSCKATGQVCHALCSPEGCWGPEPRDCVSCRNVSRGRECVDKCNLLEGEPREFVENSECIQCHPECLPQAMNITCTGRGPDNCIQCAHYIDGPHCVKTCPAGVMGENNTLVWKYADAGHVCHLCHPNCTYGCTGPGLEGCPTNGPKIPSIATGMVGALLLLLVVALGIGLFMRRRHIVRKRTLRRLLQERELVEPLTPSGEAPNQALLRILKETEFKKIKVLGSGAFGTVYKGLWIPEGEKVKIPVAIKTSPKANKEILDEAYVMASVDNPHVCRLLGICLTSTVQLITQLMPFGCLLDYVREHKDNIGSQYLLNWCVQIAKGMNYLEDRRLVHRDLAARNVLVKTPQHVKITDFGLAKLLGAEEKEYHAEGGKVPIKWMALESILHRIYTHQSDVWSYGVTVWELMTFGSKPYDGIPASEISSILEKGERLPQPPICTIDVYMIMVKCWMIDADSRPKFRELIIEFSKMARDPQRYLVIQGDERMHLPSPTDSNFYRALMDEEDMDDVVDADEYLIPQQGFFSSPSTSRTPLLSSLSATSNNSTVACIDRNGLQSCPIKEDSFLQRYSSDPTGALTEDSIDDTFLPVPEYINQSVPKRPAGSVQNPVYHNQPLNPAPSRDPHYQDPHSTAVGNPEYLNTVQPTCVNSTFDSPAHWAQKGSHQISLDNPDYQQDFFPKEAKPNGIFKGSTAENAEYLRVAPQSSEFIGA
Chain of EGFR (D746-750) (P00533 with tags, fused parts or gaps DEL746-750): as above
Chain of EGFR (L858R/T790M/C797S) (P00533 25-1210 T790M/C797S/L858R): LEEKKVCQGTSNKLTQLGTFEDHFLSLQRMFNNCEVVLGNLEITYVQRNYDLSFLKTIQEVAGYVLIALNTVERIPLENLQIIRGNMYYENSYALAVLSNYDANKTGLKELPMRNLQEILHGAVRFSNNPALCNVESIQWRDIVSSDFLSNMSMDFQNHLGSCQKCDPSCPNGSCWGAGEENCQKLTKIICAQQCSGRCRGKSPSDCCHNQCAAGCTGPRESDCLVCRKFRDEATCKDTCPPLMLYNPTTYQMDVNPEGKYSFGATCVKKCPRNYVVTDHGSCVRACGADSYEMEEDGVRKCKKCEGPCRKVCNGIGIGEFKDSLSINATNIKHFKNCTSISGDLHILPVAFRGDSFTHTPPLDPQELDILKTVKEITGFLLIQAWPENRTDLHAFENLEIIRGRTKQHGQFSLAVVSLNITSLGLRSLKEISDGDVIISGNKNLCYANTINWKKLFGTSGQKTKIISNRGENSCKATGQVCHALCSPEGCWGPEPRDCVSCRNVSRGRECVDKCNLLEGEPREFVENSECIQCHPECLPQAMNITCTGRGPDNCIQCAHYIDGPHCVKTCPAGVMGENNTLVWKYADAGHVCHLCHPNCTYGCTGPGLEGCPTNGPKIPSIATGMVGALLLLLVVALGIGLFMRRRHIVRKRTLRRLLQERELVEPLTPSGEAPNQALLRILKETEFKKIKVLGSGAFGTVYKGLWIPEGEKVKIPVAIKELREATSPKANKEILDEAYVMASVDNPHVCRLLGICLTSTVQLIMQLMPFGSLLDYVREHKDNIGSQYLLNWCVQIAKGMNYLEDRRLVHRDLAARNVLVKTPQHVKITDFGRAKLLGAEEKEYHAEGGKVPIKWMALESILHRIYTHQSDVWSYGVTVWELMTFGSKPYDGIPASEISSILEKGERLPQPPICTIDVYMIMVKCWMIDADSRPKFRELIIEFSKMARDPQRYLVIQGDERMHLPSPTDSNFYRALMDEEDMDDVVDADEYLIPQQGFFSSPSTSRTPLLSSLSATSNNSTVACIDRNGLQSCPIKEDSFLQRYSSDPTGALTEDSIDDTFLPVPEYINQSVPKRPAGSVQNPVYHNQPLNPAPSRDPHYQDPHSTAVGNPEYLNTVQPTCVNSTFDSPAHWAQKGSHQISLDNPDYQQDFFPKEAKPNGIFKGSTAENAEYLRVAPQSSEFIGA

Consider `Cc1nn(C)c2c1-c1cc3c(n[nH]c3cn1)/C=C/c1c(OCC#N)nn([C@@H](C)CO)c1CN(C)CCO2` [Ex. 70, {[(17E)-14-[(2S)-1-hydroxypropan-2-yl]-6,8,12-trimethyl-2,10,11,12,13,14-hexahydro-8H-5,3-(azenometheno)tripyrazolo[3,4-f:3′,4′-j:4″,3″-n][1,4]oxazacyclopentadecin-16-yl]oxy}acetonitrile], for which the IC50 against EGFR (D746-750/C797S) stood at 0.69 nM; against EGFR (L858R/T790M/C797S), 0.31 nM; at EGFR (D770_N771insNPG), 0.41 nM; against EGFR (D746-750), 0.16 nM.

Consider `Cc1c2c(nn1C)CN(C)CCOc1c(cnn1C)-c1cc3c(n[nH]c3cn1)/C=C/2` [Ex. 73, (17E)-8,12,15,16-tetramethyl-2,10,11,12,13,15-hexahydro-8H-5,3-(azenometheno)tripyrazolo[3,4-f:3′,4′-j:4″,3″-n][1,4]oxazacyclopentadecine], for which the half-maximal inhibitory concentration (IC50) with HCC827 cells (setting [5]) worked out at 0.24 nM; in the experiment with PC-9 cells (setting [6]), 23.7 nM; in [1], 564 nM; in experiment [2], 72.6 nM; in the experiment with NCI-H1975 cells (setting [7]), 5.53 nM; in experiment [3] it was 35.8 nM.

`Cc1nn(C)c2c1-c1cc3c(n[nH]c3cn1)/C=C/c1c(OCC#N)nn(CCO)c1CN1CCC[C@@H]1CO2` [Ex. 43, {[(8aR,19E)-3-(2-hydroxyethyl)-11,13-dimethyl-3,4,7,8,8a,9,11,17-octahydro-6H-14,16-(azenometheno)tripyrazolo[3,4-f:3′,4′-j:4″,3″-n]pyrrolo[2,1-c][1,4]oxazacyclopentadecin-1-yl]oxy}acetonitrile]: the concentration for half-maximal inhibition (IC50) at EGFR (D746-750/C797S) was determined as 0.23 nM; against EGFR (L858R/T790M/C797S), 0.16 nM; at EGFR (D770_N771insNPG), 0.18 nM; against EGFR (D746-750), 0.09 nM.

Take `Cc1nn(C)c2c1-c1cc3c(n[nH]c3cn1)/C=C/c1c(OCC#N)nn(CCO)c1CN(C)C[C@@H](C)O2` [Ex. 42, {[(10R,17E)-14-(2-hydroxyethyl)-6,8,10,12-tetramethyl-2,10,11,12,13,14-hexahydro-8H-5,3-(azenometheno)tripyrazolo[3,4-f:3′,4′-j:4″,3″-n][1,4]oxazacyclopentadecin-16-yl]oxy}acetonitrile]: the IC50 against EGFR (D746-750/C797S) was 0.83 nM; on EGFR (L858R/T790M/C797S) it was 0.56 nM; on EGFR (D770_N771insNPG) it was 0.35 nM; at EGFR (D746-750), 0.29 nM.

Regarding `CCN1Cc2c(c(OCC#N)nn2[C@@H](C)CO)/C=C/c2n[nH]c3c(C)nc(cc23)-c2c(C)nn(C)c2O[C@@H](C)C1` [Ex. 148, {[(10S,17E)-12-ethyl-14-[(2S)-1-hydroxypropan-2-yl]-6,8,10,20-tetramethyl-2,10,11,12,13,14-hexahydro-8H-5,3-(azenometheno)tripyrazolo[3,4-f:3′,4′-j:4″,3″-n][1,4]oxazacyclopentadecin-16-yl]oxy}acetonitrile], the concentration for half-maximal inhibition (IC50) with HCC827 cells (setting [5]) came out at 0.29 nM; in the experiment on PC-9 cells (setting [6]), 0.76 nM; in experiment [4], 2.9 nM; in [1], 40.5 nM; in experiment [2], 1.94 nM; in the experiment on NCI-H1975 cells (setting [7]), 1.76 nM.

Consider `[2H]C([2H])([2H])C([2H])([2H])Oc1nn([C@@H](C)CO)c2c1/C=C/c1n[nH]c3cnc(cc13)-c1c(C)nn(C)c1O[C@@H](C)CN(C)C2` [Ex. 87, (2S)-2-[(10S,17E)-16-[(^2H5)ethyloxy]-6,8,10,12-tetramethyl-2,8,10,11,12,13-hexahydro-14H-5,3-(azenometheno)tripyrazolo[3,4-f:3′,4′-j:4″,3″-n][1,4]oxazacyclopentadecin-14-yl]propan-1-ol], for which the IC50 with HCC827 cells (HCC827, 120 h) was 0.23 nM; in the experiment with PC-9 cells (PC-9, 120 h) it was 0.36 nM; in experiment [4] it was 1.82 nM; in [1], 5.88 nM; in [2] it was 0.97 nM; in the experiment with NCI-H1975 cells (NCI-H1975, 120 h) it was 0.57 nM.

`CCOc1nn([C@@H](C)CO)c2c1/C=C/c1n[nH]c3c(C)nc(cc13)-c1c(COC)nn(C)c1O[C@@H](C)CN(CC)C2` [Ex. 147, (2S)-2-[(10S,17E)-16-ethoxy-12-ethyl-6-(methoxymethyl)-8,10,20-trimethyl-2,8,10,11,12,13-hexahydro-14H-5,3-(azenometheno)tripyrazolo[3,4-f:3′,4′-j:4″,3″-n][1,4]oxazacyclopentadecin-14-yl]propan-1-ol]: the IC50 in the experiment on HCC827 cells (setting [5]) amounted to 0.34 nM; in the experiment with PC-9 cells (setting [6]), 0.59 nM; in experiment [1] it was 11.3 nM; with NCI-H1975 cells (setting [7]), 20.4 nM.

With `Cc1nn(C)c2c1-c1cc3c(n[nH]c3c(C)n1)/C=C/c1c(OCC#N)nn([C@@H](C)CO)c1CN(CC(F)F)C[C@H](C)O2` [Ex. 151, {[(10S,17E)-12-(2,2-difluoroethyl)-14-[(2S)-1-hydroxypropan-2-yl]-6,8,10,20-tetramethyl-2,10,11,12,13,14-hexahydro-8H-5,3-(azenometheno)tripyrazolo[3,4-f:3′,4′-j:4″,3″-n][1,4]oxazacyclopentadecin-16-yl]oxy}acetonitrile], the half-inhibitory concentration (IC50) in the experiment on HCC827 cells (setting [5]) was 0.42 nM; with PC-9 cells (setting [6]), 1.55 nM; in experiment [4], 3.24 nM; in experiment [1], 26.6 nM; in experiment [2], 2.04 nM; with NCI-H1975 cells (setting [7]), 4.89 nM.
